Experiments:
[1] = test system: ovarian cancer cell line A2780; experiment: MTT assay, ovarian cancer cell line A2780; type: cell-based, human; conditions: n = 3, A2780
Description: MTT [3-(4,5-dimethylthiazol-2yl)-2,5-diphenyltetrazolium bromide] method:
MTT is used to measure the metabolic activity of viable cells. The assay is non-radioactive and can be performed entirely in a micro titer plate (MTP). It is suitable for measuring cell proliferation, cell viability or cytotoxicity. The reaction produces water-insoluble formazan salt that must be solubilized. Procedure involves culturing the cells in a 96-well micro titer plate, and then incubating them with MTT solution for approximately 2 hours. During incubation period, viable cells convert MTT to a water-insoluble formazan dye. The formazan dye in the MTP is solubilized and quantified with an ELISA plate reader. The absorbance directly correlates with the cell number. This can be applicable for adherent cells cultured in MTP.
Compounds were tested at concentrations of 3 and 30 μg/ml by MTT assay using the ovarian cancer cell line A2780.

[2] = Solubility in water and organic solvents; type: physicochemical
[3] = Stability at room temperature; type: physicochemical

solubility in dimethylformamide and dimethylsulphoxide [2]	solubility in methanol and acetone [2]	solubility in water [2]	stability at room temperature [3]	Structure (SMILES)	Percent surviving cells of DMSO control (Mean) ([1]; 3 μg/ml) [%]	Percent surviving cells of DMSO control (Mean) ([1]; 30 μg/ml) [%]
fairly soluble	very slightly soluble	insoluble	stable	Clc1nc2ccccc2nc1NN=Cc1ccccn1 [RM10, 2-pyridinecarbaldehyde-2-(3-chloro-2-quinoxalinyl)hydrazone]	4.6	1
fairly soluble	very slightly soluble	insoluble	stable	Clc1nc2ccccc2nc1NN=Cc1ccco1 [RM14, 2-furaldehyde-2-(3-chloro-2-quinoxalinyl)hydrazone]	13.2	0.7
fairly soluble	very slightly soluble	insoluble	stable	Oc1ccccc1C=NNc1nc2ccccc2nc1Cl [RM2, 2-hydroxybenzaldehyde-1-(3-chloro-2-quinoxalinyl) hydrazone]	0.4	0.4
fairly soluble	very slightly soluble	insoluble	stable	Clc1nc2ccccc2nc1NN=Cc1ccccn1 [RM11, 2-pyridinecarbaldehyde-2-(3-chloro-2-quinoxalinyl)hydrazone]	0.4	0.7

The next lines start with the compound.

Structure (SMILES)	solubility in dimethylformamide and dimethylsulphoxide [2]	solubility in methanol and acetone [2]	solubility in water [2]	stability at room temperature [3]	Percent surviving cells of DMSO control (Mean) ([1]; 3 μg/ml) [%]	Percent surviving cells of DMSO control (Mean) ([1]; 30 μg/ml) [%]
COc1cccc(C=NNc2nc3ccccc3nc2Cl)c1O [RM5, 2-Hydroxy-3-methoxybenzaldehyde-1-(3-chloro-2-quinoxalinyl)-hydrazone]	fairly soluble	very slightly soluble	insoluble	stable	0.6	0.2
Oc1ccc2ccccc2c1C=NNc1nc2ccccc2nc1Cl [RM8, 2-hydroxy-1-naphthaldehyde-1-(3-chloro-2-quinoxalinyl)hydrazone]	fairly soluble	very slightly soluble	insoluble	stable	0.3	0.1
Oc1ccc2ccccc2c1C=NNc1nc2ccccc2nc1Cl [RM7, 2-hydroxy-1-naphthaldehyde-1-(3-chloro-2-quinoxalinyl)hydrazone]	fairly soluble	very slightly soluble	insoluble	stable	6.6	0.9
